In general, AC50 refers to the concentration at which the activity in the assay is half-maximal.

Inconclusive results are not listed. Calls of active or inactive are those of the source.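 Rule for the calls: active = compounds lowering the luciferase signal with a fitted half-maximal dose at most twice their top valid dose (cut at about 30 µM in these data); inconclusive = flat fits with moderate signal loss, or poor fits; inactive = the rest.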

This assay concerns Clone20 osteoblast Shn3 3'UTR firefly luciferase, 24 h. As to the kind of experiment: Schnurri-3 3'UTR-luciferase signal suppressors – cell-based, Clone20 osteoblasts, luminescence, dry powder, set 2, dose response (AID 743417).
Consider `O=S(=O)(c1ccc(Cl)cc1)N1CCN(c2ncnc3sccc23)CC1`, for which the AC50 is 3.04 µM. On to `COc1ccc(-c2ccc(Nc3ccc(S(=O)(=O)N4CCCC4)cc3)nn2)cc1OC`, for which the AC50 was 20.1 µM. The value for `Cc1c(C(C)C)c(=O)n(-c2ccc(S(=O)(=O)NC3CCCCC3)cc2)n1C` was 1.06 µM; that for `CC(C)Cn1c(N)c(C(=O)COC(=O)CC23CC4CC(CC(C4)C2)C3)c(=O)n(C)c1=O` was 1.51 µM. The value for `Oc1c(C(Nc2cccc(C(F)(F)F)c2)c2ccncc2)ccc2cccnc12` (stereo unspecified) was 5.8 µM; that for `C[C@@H]1CN([C@@H](C)CO)C(=O)c2cc(NC(=O)Nc3ccc(F)cc3)ccc2O[C@@H]1CN(C)Cc1ccc(Oc2ccccc2)cc1` was 9.38 µM. The value for `CC(C)C[C@H](N)c1nnc(S(=O)(=O)Cc2ccc(F)cc2)o1` was 9.02 µM; that for `Cc1ccc(S(=O)(=O)c2ccc([N+](=O)[O-])cn2)cc1` was 3.85 µM. Regarding `Cc1ccc(Cn2ccc(=O)c(OCc3c(Cl)cccc3Cl)c2C)cc1`, the AC50 was 6.11 µM.

For the compound `O=C(NNC(=O)C(c1ccccc1)c1ccccc1)c1ccccn1`, the AC50 is 2.87 µM. In the case of `COc1ccc(CC(N)c2csc(NC(=O)c3cc(C(C)(C)C)nn3Cc3ccccc3)n2)cc1` (stereo unspecified) it was 9.53 µM. In the case of `CCOc1cc(C(=O)CSc2nnc(CNc3ccc(Cl)cc3)o2)ccc1NC(=O)CC` it was 7.73 µM. The value for `COc1ccccc1NC(=O)Nc1nc(C(N)Cc2ccc(C(F)(F)F)cc2)cs1` (stereo unspecified) was 10.3 µM. For the compound `CCOC(=O)C1(Cc2cccc(OC)c2)CCN(C/C=C/c2ccc(OC)cc2)CC1`, the AC50 was 4.75 µM. In the case of `CC(=O)N1CCN(C(=O)CCc2cc(C(C)(C)C)c(O)c(C(C)(C)C)c2)CC1` it was 4.46 µM. The value for `COc1cc(OC)c(OC)cc1/C=C1\CC(C)C/C(=C\c2cc(OC)c(OC)cc2OC)C1=O` (stereo unspecified) was 3.22 µM.

Regarding `Cc1ccc(-n2ncc3c2CCCC3NC(=O)c2ocnc2C)cc1C` (stereo unspecified), the AC50 is 1.29 µM. The value for `CSc1nnc(NC(=O)c2nc(S(=O)(=O)Cc3ccccc3F)ncc2Cl)s1` was 1.55 µM. In the case of `CN1CCN(C(c2ccc(Br)cc2)c2cc(Cl)c3cccnc3c2O)CC1` (stereo unspecified) it was 3.61 µM; in that of `COC(=O)Oc1ccc(/C=C/C(=O)OC(C)C)cc1OC(=O)OC`, 3.29 µM; in that of `COc1ccc(OCc2cccc(C(=O)O)c2)cc1`, 1.39 µM. The value for `COc1ccc(C(=O)Nc2nc3ccccc3s2)c(OC)c1` was 0.523 µM. For the compound `Cc1ccc2nc(-c3ccc(O)c(O)c3)cn2c1`, the AC50 was 4.2 µM.

As to `CC(=O)Nc1ccc(NC(=O)c2nc(S(=O)(=O)Cc3ccccc3)ncc2Cl)cc1`, the AC50 is 0.773 µM.

With `Cc1onc(-c2ccccc2Cl)c1C(=O)N1CCC(Cc2ccccc2)CC1`, the concentration at half-maximal activity (AC50) was 2.29 µM. In the case of `CN(Cc1ccccc1)C(=O)c1cccc(NC(=O)Cc2ccc([N+](=O)[O-])cc2)c1` it was 16.8 µM; in that of `CC(C)(C)c1ccc(C(=O)NCCCN2CCN(CCCNC(=O)c3ccc(C(C)(C)C)cc3)CC2)cc1`, 4.84 µM. Turning to `O=C1CCCN2N=C(SCC(=O)Nc3cccc(C(F)(F)F)c3)SC2=N1`, the concentration at half-maximal activity (AC50) was 4.37 µM. The value for `CC1CCCC(NC(=O)c2cccc(S(=O)(=O)N3CCN(c4ccccc4)CC3)c2)C1C` (stereo unspecified) was 3.14 µM. The value for `CCn1c(N2CCN(S(=O)(=O)c3ccc(Cl)cc3)CC2)nc2ccccc21` was 9.14 µM.

As for `Cc1cc(C)nc(SCC(=O)Nc2ccnc3ccccc23)n1`, the AC50 is 0.462 µM. In the case of `Cn1c(SCC(=O)N2CCCc3ccccc32)nc2ccccc2c1=O` it was 3.46 µM.

Take `CC(C)C[C@@H](CN1CCCC1CN1C(=S)NC[C@@H]1Cc1ccc(O)cc1)N1C[C@H](Cc2ccc(O)cc2)N(CC2CCCCCC2)C1=S` (stereo partly specified): the AC50 was 18.8 µM. In the case of `Cc1ccc2cc(CN(CC3CCCO3)C(=O)NC3CCCCC3)c(=O)[nH]c2c1C` (stereo unspecified) it was 4.49 µM. Regarding `CCOC(=O)c1c(NC(=O)COc2cccc3c2CCN(C)C3=O)sc2c1CCC2`, the AC50 was 5.44 µM. In the case of `Cc1ccc(CNC(=O)c2ccc3c(=O)c(O)c(-c4ccc(C)cc4)[nH]c3c2)cc1` it was 2.82 µM. In the case of `CC[C@@H](C)[C@H](CNC)NC[C@@H](Cc1cccc2ccccc12)NCCc1cccc(C(F)(F)F)c1` it was 8.08 µM; in that of `Cn1cc(S(=O)(=O)N2CCc3ccccc32)cc1C(=O)NC(C)(C)C`, 1.25 µM. In the case of `Cc1cccc2c(C(=O)N3CCN(c4ccccn4)CC3)cc(-c3cccc(Br)c3)nc12` it was 6.48 µM; in that of `CC(C)C1C(=O)N(Cc2cn(CCC3OCCO3)nn2)CCS(=O)(=O)N1Cc1ccc(-c2ccc(Cl)cc2)cc1` (stereo unspecified), 2.13 µM. With `C=CCOC(=O)C1=C(C)N=C2SCCC(=O)N2C1c1cccs1` (stereo unspecified), the AC50 is > 70 µM (inactive). Turning to `COc1ccc(C(=O)NC(=S)NNC(=O)c2ccc3ccccc3n2)cc1`, the half-maximal activity concentration (AC50) was 4.32 µM. In the case of `COc1cc(SC)ccc1C(=O)Nc1nc(C)cs1` it was 7.09 µM; in that of `S=C(NCCc1ccccc1)Nc1cccc2cnccc12`, 0.922 µM.

As to `O=C(CN1CCCC1c1cccs1)Nc1cc(S(=O)(=O)N2CCCCC2)ccc1Cl` (stereo unspecified), the AC50 was 14.4 µM.

Regarding `CCOC(=O)c1nc(S(C)(=O)=O)ncc1Cl`, the AC50 was 6.37 µM.

`C=C1C(=O)[C@@]23[C@H](O)C[C@@H]4C(C)(C)CC[C@H](O)[C@]4(C)[C@@H]2C[C@H](O)[C@@H]1[C@H]3O`: the AC50 is 2.95 µM. In the case of `COc1ccccc1C(=O)Nc1nc2ccccc2[nH]1` it was 0.868 µM. In the case of `CCN(CC)S(=O)(=O)c1ccc(N(C)Cc2ccc(C(F)(F)F)cc2)nc1` it was 5.85 µM; in that of `O=C(NCCc1ccccc1)c1ccc2c(c1)OCCCO2`, 1.05 µM; in that of `O=C(Nc1ccc(Cl)cc1)Nc1ccc(N2CCCC2)c(S(=O)(=O)Nc2ccccc2Cl)c1`, 5.2 µM. The value for `COc1ccc(CNCCc2ccc(Cl)cc2)cc1OCc1ccccc1` was 5.59 µM; that for `CN(CCO)c1cc(Sc2nc3ccccc3s2)c2nonc2c1[N+](=O)[O-]` was 1.55 µM; that for `COc1ccccc1NC(=O)c1nc(S(=O)(=O)Cc2ccccc2)ncc1Cl` was 0.492 µM.

For `CN(C)CCN1C(=O)c2cccc3cc([N+](=O)[O-])cc(c23)C1=O`, the concentration at half-maximal activity (AC50) is 1.11 µM.

Consider `Cc1cccc(CS(=O)(=O)c2ncc(Cl)c(C(=O)Nc3ccc(F)cc3)n2)c1`, for which the concentration at half-maximal activity (AC50) is 0.55 µM.

Regarding `CCOC(=O)c1cnc(-n2nc(C)cc2C)nc1NCc1ccc2c(c1)OCO2`, the AC50 is 8.74 µM. The value for `Cc1c(C(=O)Nc2cccc(C(F)(F)F)c2)oc2ccc(S(=O)(=O)N3CCOCC3)cc12` was 3.8 µM. In the case of `CSc1cccc(NS(=O)(=O)c2ccc3c(c2)CCN3C(C)=O)c1` it was 1.49 µM. The value for `O=C(Nc1nc(-c2ccccn2)cs1)C1COc2ccccc2O1` (stereo unspecified) was 5.81 µM. In the case of `CCC(=O)OCCNc1cc(Sc2nccn2C)c2nonc2c1[N+](=O)[O-]`, the AC50 is 1.55 µM. The value for `Cn1nc(-c2ccc(OCC(=O)N3CCN(Cc4ccccc4)CC3)cc2)c2ccccc2c1=O` was 2.1 µM. The value for `CC(C)(CNC(=O)c1ccc(Cl)c(S(=O)(=O)N2CCc3ccccc3C2)c1)N1CCOCC1` was 10.5 µM; that for `Cc1cc2cc(CN(CC3CCCO3)C(=S)Nc3ccccc3)c(=O)[nH]c2cc1C` (stereo unspecified) was 2.91 µM. Regarding `CC(C)C[C@H]1CNC(=S)N1CC1CCN(CC2CCC(C(C)(C)C)CC2)CC1` (stereo partly specified), the AC50 is 4.05 µM. Turning to `C=CCNc1nc(N2CCOCC2)c(C#N)c2c1CN(C)CC2`, the AC50 was > 70 µM (inactive).

For the origin of these results see PubChem BioAssay AID743417 (Broad Institute, 2014).
